Columns and labels:
[1] = system: HCT-116; assay: Antiproliferative activity against human HCT116 cells assessed as reduction in cell viability by MTT assay; assay type: functional, cell-based
[2] = system: NCI-H522; assay: Growth inhibition of human NCI-H522 cells assessed as cell growth at 0.01 uM after 48 hrs by SRB assay relative to control; assay type: functional; conditions: NCI-H522, 48 h, read-out: Activity
[3] = system: OVCAR-5; assay: Growth inhibition of human OVCAR5 cells assessed as cell growth at 0.01 uM after 48 hrs by SRB assay relative to control; assay type: functional; conditions: OVCAR-5, 48 h, read-out: Activity
[4] = system: UO-31; assay: Growth inhibition of human UO31 cells assessed as cell growth at 0.01 uM after 48 hrs by SRB assay relative to control; assay type: functional; conditions: UO-31, 48 h, read-out: Activity
[5] = system: DU-145; assay: Growth inhibition of human DU145 cells assessed as cell growth at 0.01 uM after 48 hrs by SRB assay relative to control; assay type: functional; conditions: DU-145, 48 h, read-out: Activity
[6] = system: MCF7; assay: Growth inhibition of human MCF7 cells assessed as cell growth at 0.01 uM after 48 hrs by SRB assay relative to control; assay type: functional; conditions: MCF7, 48 h, read-out: Activity
[7] = system: HOP-92; assay: Growth inhibition of human HOP92 cells assessed as cell growth at 0.1 uM after 48 hrs by SRB assay relative to control; assay type: functional; conditions: HOP-92, 48 h, read-out: Activity
[8] = system: SF-295; assay: Growth inhibition of human SF295 cells assessed as cell growth at 0.1 uM after 48 hrs by SRB assay relative to control; assay type: functional; conditions: SF-295, 48 h, read-out: Activity
[9] = system: SF-539; assay: Growth inhibition of human SF539 cells assessed as cell growth at 0.1 uM after 48 hrs by SRB assay relative to control; assay type: functional; conditions: SF-539, 48 h, read-out: Activity
[10] = system: SN12C; assay: Growth inhibition of human SN12C cells assessed as cell growth at 0.1 uM after 48 hrs by SRB assay relative to control; assay type: functional; conditions: read-out: Activity
[11] = system: HOP-62; assay: Growth inhibition of human HOP62 cells assessed as cell growth at 1 uM after 48 hrs by SRB assay relative to control; assay type: functional; conditions: HOP-62, 48 h, read-out: Activity
[12] = system: NCI-H23; assay: Growth inhibition of human NCI-H23 cells assessed as cell growth at 1 uM after 48 hrs by SRB assay relative to control; assay type: functional; conditions: NCI-H23, 48 h, read-out: Activity
[13] = system: SW-620; assay: Growth inhibition of human SW620 cells assessed as cell growth at 1 uM after 48 hrs by SRB assay relative to control; assay type: functional; conditions: SW-620, 48 h, read-out: Activity
[14] = system: SF-539; assay: Growth inhibition of human SF539 cells assessed as cell growth at 1 uM after 48 hrs by SRB assay relative to control; assay type: functional; conditions: SF-539, 48 h, read-out: Activity
[15] = system: SK-OV-3; assay: Growth inhibition of human SKOV3 cells assessed as cell growth at 1 uM after 48 hrs by SRB assay relative to control; assay type: functional; conditions: SK-OV-3, 48 h, read-out: Activity
[16] = system: A498; assay: Growth inhibition of human A498 cells assessed as cell growth at 1 uM after 48 hrs by SRB assay relative to control; assay type: functional; conditions: A498, 48 h, read-out: Activity
[17] = system: MOLT-4; assay: Growth inhibition of human MOLT4 cells assessed as cell growth at 10 uM after 48 hrs by SRB assay relative to control; assay type: functional; conditions: MOLT-4, 48 h, read-out: Activity
[18] = system: NCI-H322M; assay: Growth inhibition of human NCI-H322M cells assessed as cell growth at 10 uM after 48 hrs by SRB assay relative to control; assay type: functional; conditions: read-out: Activity
[19] = system: IGROV-1; assay: Growth inhibition of human IGROV1 cells assessed as cell growth at 10 uM after 48 hrs by SRB assay relative to control; assay type: functional; conditions: IGROV-1, 48 h, read-out: Activity
[20] = system: A549; assay: Growth inhibition of human A549/ATCC cells assessed as cell growth at 100 uM after 48 hrs by SRB assay relative to control; assay type: functional; conditions: A549, 48 h, read-out: Activity
[21] = system: EKVX; assay: Growth inhibition of human EKVX cells assessed as cell growth at 100 uM after 48 hrs by SRB assay relative to control; assay type: functional; conditions: read-out: Activity
[22] = system: HOP-92; assay: Growth inhibition of human HOP92 cells assessed as cell growth at 100 uM after 48 hrs by SRB assay relative to control; assay type: functional; conditions: HOP-92, 48 h, read-out: Activity
[23] = system: NCI-H460; assay: Growth inhibition of human NCI-H460 cells assessed as cell growth at 100 uM after 48 hrs by SRB assay relative to control; assay type: functional; conditions: NCI-H460, 48 h, read-out: Activity
[24] = system: HT-29; assay: Growth inhibition of human HT-29 cells assessed as cell growth at 100 uM after 48 hrs by SRB assay relative to control; assay type: functional; conditions: HT-29, 48 h, read-out: Activity
[25] = system: SK-MEL-5; assay: Growth inhibition of human SK-MEL-5 cells assessed as cell growth at 100 uM after 48 hrs by SRB assay relative to control; assay type: functional; conditions: SK-MEL-5, 48 h, read-out: Activity
[26] = system: A498; assay: Growth inhibition of human A498 cells assessed as cell growth at 100 uM after 48 hrs by SRB assay relative to control; assay type: functional; conditions: A498, 48 h, read-out: Activity
[27] = system: RXF 393; assay: Growth inhibition of human RXF393 cells assessed as cell growth at 100 uM after 48 hrs by SRB assay relative to control; assay type: functional; conditions: RXF 393, 48 h, read-out: Activity
[28] = system: T47D; assay: Growth inhibition of human T47D cells assessed as cell growth at 100 uM after 48 hrs by SRB assay relative to control; assay type: functional; conditions: read-out: Activity
[29] = system: HOP-62; assay: Cytotoxicity against human HOP62 cells assessed as growth inhibition after 48 hrs by SRB assay; assay type: functional; conditions: HOP-62, 48 h
[30] = system: NCI-H23; assay: Cytotoxicity against human NCI-H23 cells assessed as growth inhibition after 48 hrs by SRB assay; assay type: functional; conditions: NCI-H23, 48 h
[31] = system: Malme-3M; assay: Cytotoxicity against human MALME-3M cells assessed as growth inhibition after 48 hrs by SRB assay; assay type: functional
[32] = system: NCI/ADR-RES; assay: Cytotoxicity against human NCI-ADR-RES cells assessed as growth inhibition after 48 hrs by SRB assay; assay type: functional
[33] = read-out: LC50 (the source's name)
[34] = read-out: pLC50 (the source's name) (converted)

COc1ccc2c(c1)CCc1n[nH]c(-c3cc(OC)c(OC)c(OC)c3)c1-2
IC50 [1]: 1 nM
growth at 0.01 µM [2]: -16%
growth at 0.01 µM [3]: 56%
growth at 0.01 µM [4]: 42%
growth at 0.01 µM [5]: 13%
growth at 0.01 µM [6]: 17%
growth at 0.1 µM [7]: 30%
growth at 0.1 µM [8]: 5%
growth at 0.1 µM [9]: -6%
growth at 0.1 µM [10]: 35%
growth at 1 µM [11]: 6%
growth at 1 µM [12]: 7%
growth at 1 µM [13]: 14%
growth at 1 µM [14]: -12%
growth at 1 µM [15]: -5%
growth at 1 µM [16]: -16%
growth at 10 µM [17]: 31%
growth at 10 µM [18]: 31%
growth at 10 µM [19]: 20%
growth at 100 µM [20]: -26%
growth at 100 µM [21]: -25%
growth at 100 µM [22]: -50%
growth at 100 µM [23]: -59%
growth at 100 µM [24]: -72%
growth at 100 µM [25]: -97%
growth at 100 µM [26]: -61%
growth at 100 µM [27]: -68%
growth at 100 µM [28]: -72%
GI50 ([29]; read-out: GI50): < 10 nM
CC50 [29, 33]: 46.7 µM
TGI ([29]; read-out: TGI): 10.8 µM
GI50 ([29]; read-out: pGI50 (converted)): < 10 nM
CC50 [29, 34]: 46.8 µM
TGI ([29]; read-out: pTGI (converted)): 10.7 µM
GI50 ([30]; read-out: GI50): < 10 nM
CC50 [30, 33]: > 100 µM
TGI ([30]; read-out: TGI): 3.53 µM
GI50 ([30]; read-out: pGI50 (converted)): < 10 nM
CC50 [30, 34]: > 100 µM
TGI ([30]; read-out: pTGI (converted)): 3.55 µM
GI50 ([31]; read-out: GI50): < 10 nM
CC50 [31, 33]: > 100 µM
TGI ([31]; read-out: TGI): 33.9 µM
GI50 ([31]; read-out: pGI50 (converted)): < 10 nM
CC50 [31, 34]: > 100 µM
TGI ([31]; read-out: pTGI (converted)): 33.9 µM
GI50 ([32]; read-out: GI50): < 10 nM
LC50 ([32]; read-out: LC50): > 100 µM
TGI ([32]; read-out: TGI): < 10 nM
GI50 ([32]; read-out: pGI50 (converted)): < 10 nM
LC50 ([32]; read-out: pLC50 (converted)): > 100 µM
TGI ([32]; read-out: pTGI): < 10 nM
